Experimental data: patent publication US7790762B2, “Compounds and methods for thiol-containing compound efflux and cancer treatment” (National Jewish Health, priority 2002, dated 2010)
Read-outs that look alike come from different tables or passages of the source.

Key:
Assay type in all cases: cell-based, human
HL-60 cells [1] = experiment: Cytotoxicity as LDH release in HL-60 cells; conditions: for LDH rel. % con. / LDH release, % of control at 50 µM / LDH release, % of control at 25 µM: 48 hours treatment; for LDH release, % of control at 50 µM / LDH release, % of control at 25 µM: Homo sapiens, read-out: LDH rel. % con.
Experimental: (§1) Cell lines and culture conditions. Human lung epithelial cancer (A549), human leukemia HL-60 and human prostate (PC-3) tumor cells were purchased from ATCC (Manassas, Va.). A549 and PC-3 cells were grown in Ham's F12 medium (F12) and Kaighn's modification of Ham's F12 medium (F12K) with 2 mM L-glutamine (ATCC), respectively, supplemented with 10% fetal bovine serum (FBS) and 5% pen/strep (10,000 unit, Cellgro). HL-60 cells were grown in Iscove's modified Dulbecco's medium with 4 mM L-glutamine (ATCC) supplemented with 20% FBS and 5% pen/strep. Cell were grown in T-75 flask at 37° C. and 5% CO2 air atmosphere and in 24-well plates for GSH levels and LDH release measurements.
(§2) Assessment of cytotoxicity. In one exemplary method, membrane integrity of A549, HL-60 and PC-3 cells was used as an index of drug-induced cytotoxicity, and was assessed by monitoring the release of cytosolic lactate dehydrogenase (LDH). LDH activity was measured in the culture medium and cell lysates (50 mM HEPES, Triton X-100 0.5%, pH 7) using a plate reader format as previously described (41). Briefly, 5 μl of cell culture supernatant and lysates were incubated with 0.24 mM NADH in a Tris/NaCl pH 7.2 buffer in 96-well plates for 5 min at 25° C. The reaction was started by the addition of 9.8 mM pyruvate and the consumption of NADH followed at 340 nm for 5 min at 30° C. Percent LDH release was calculated by the following: (supernatant LDH/supernatant LDH+lysate LDH)×100.

A549 cells [2] = experiment: Intracellular GSH levels by HPLC-EC in A549 cells; conditions: for activity at 25 µM / activity at 50 µM: Homo sapiens
Experimental: as §1
(§3) Intracellular levels of GSH. Intracellular GSH levels can be determined by HPLC-EC. Cultured cells from 24-well plates were washed once with 1 ml of PBS and then re-suspended in 0.5 ml of distilled water with 40 μM of digitonin (2 mM stock solution in DMSO) for 30 min at room temperature. Then, 50 μl of 10% meta-phosphoric acid were added (1% final concentration), the samples were sonicated for 2 min, centrifuged at 20,000 g for 10 min, and 0.2 ml of supernatant placed in vials for HPLC analysis. […] The flow rate was […]. The retention time for GSH in these conditions was 7.5 min. The HPLC instrument was from ESA, Inc. (Chelmsford, Mass.), equipped with an autosampler (model 540) and a Coul array detector (model 5600A). The potential applied was +0.75 V vs. H/Pd electrode, and the injection volume 5 μl.

PC-3 cells [3] = experiment: Intracellular GSH levels by HPLC-EC in PC-3 cells; conditions: for Int. GSH % con. / activity at 25 µM: PC-3, 25 μM
Experimental: as §1, §3

HL-60 cells [4] = experiment: Intracellular GSH levels by HPLC-EC in HL-60 cells
Experimental: as §1, §3

A549 cells [5] = experiment: Cytotoxicity as LDH release in A549 cells; conditions: for LDH release, % of control at 75 µM / LDH rel. % con.: A549, 75 μM
Experimental: as §1, §2

PC-3 cells [6] = experiment: Cytotoxicity as LDH release in PC-3 cells; conditions: PC-3, 50 μM, 48 hours treatment; for LDH release, % of control at 50 µM: Homo sapiens, read-out: LDH rel. % con.
Experimental: as §1, §2

[7] = HL-60, 25 μM, 24 hours treatment
[8] = A549, 25 μM, 2 h, read-out: Intracellular GSH levels, % compared to control
[9] = A549, 25 μM, 4 h, read-out: Intracellular GSH levels, % compared to control
[10] = Homo sapiens, 48 hours treatment, read-out: LDH rel. % con.
[11] = A549, 25 μM, 24 hours treatment, read-out: Int. GSH % con.
[12] = Homo sapiens, 24 hours treatment, read-out: Int. GSH % con.
[13] = A549, 25 μM, 24 hours treatment
[14] = HL-60, 50 μM, 24 hours treatment
[15] = Homo sapiens, HL-60, 25 μM, 24 hours treatment, read-out: Int. GSH % con.
[16] = A549, 50 μM, 24 hours treatment, read-out: Int. GSH % con.

SMILES: C[C@]12CC[C@@H]3c4ccc(O)cc4CC[C@H]3[C@@H]1CC[C@@H]2O [β-Estradiol, β-estradiol, reference compound]
- LDH rel. % con. (HL-60 cells [1]; HL-60, 25 μM): 120 % con.
- Int. GSH % con. (A549 cells [2]; A549, 50 μM, 24 hours treatment): 41 % con.
- Int. GSH % con. (PC-3 cells [3]; 24 hours treatment): 98 % con.
- Int. GSH % con. (HL-60 cells [4]; [7]): 70 % con.

SMILES: O=C(/C=C/c1ccccc1)c1ccc(O)cc1 [4′-HC, 4′-hydroxychalcone]
- activity at 25 µM (A549 cells [2]; [8]): 35.6 ± 2.9%
- activity at 25 µM (A549 cells [2]; [9]): < 5%
- intracellular GSH levels compared to control (PC-3 cells [3]; PC-3 cells, 25 μM, 24 hours of treatment (FIG. 19B)): 164%
- intracellular GSH levels compared to control (HL-60 cells [4]; HL-60 cells, 25 μM, 24 hours of treatment (FIG. 19B)): 215%

SMILES: O=C1CC(c2ccc(O)cc2)Oc2cc(O)cc(O)c21 (centres unmarked) [Naringenin, 4′,5,7-trihydroxyflavanone]
- LDH release, % of control at 75 µM (A549 cells [5]; [10]): 130%
- LDH release, % of control at 50 µM (HL-60 cells [1]; HL-60, 50 μM): 95%
- activity at 25 µM (A549 cells [2]; [11]): 17%
- activity at 25 µM (PC-3 cells [3]; [12]): 83%
- LDH release, % of control at 50 µM (PC-3 cells [6]): 107%
- activity at 75 µM (HL-60 cells [4]; Homo sapiens, HL-60, 75 μM, 24 hours treatment, read-out: Int. GSH % con.): 73%

SMILES: O=c1c(O)c(-c2ccc(O)c(O)c2)oc2cc(O)cc(O)c12 [Quercetin]
- LDH rel. % con. (A549 cells [5]; 48 hours treatment): 175 % con.
- LDH rel. % con. (HL-60 cells [1]; HL-60, 50 μM): 157 % con.
- Intracellular GSH levels, % compared to control (A549 cells [2]; A549, 25 μM, 4 h): 51.0 ± 0.7%
- Int. GSH % con. (A549 cells [2]; [13]): 36 % con.
- Int. GSH % con. (PC-3 cells [3]; 24 hours treatment): 95 % con.
- LDH rel. % con. (PC-3 cells [6]): 80 % con.
- Int. GSH % con. (HL-60 cells [4]; [14]): 94 % con.

SMILES: CN(C)C(=O)CCSC(SCCC(=O)O)c1cccc(/C=C/c2ccc3ccc(Cl)cc3n2)c1 (centres unmarked) [MK-571, reference compound]
- LDH release, % of control at 50 µM (A549 cells [5]; Homo sapiens, A549, 50 μM, 48 hours treatment, read-out: LDH rel. % con.): 249%
- LDH release, % of control at 25 µM (HL-60 cells [1]; HL-60, 25 μM): 169%
- activity at 25 µM (A549 cells [2]; [8]): 62.6 ± 4.9%
- activity at 25 µM (A549 cells [2]; [9]): < 5%
- activity at 25 µM (A549 cells [2]; [11]): < 5%
- activity at 25 µM (PC-3 cells [3]; [12]): 41%
- LDH release, % of control at 50 µM (PC-3 cells [6]): 143%
- activity at 25 µM (HL-60 cells [4]; [15]): 40%

SMILES: O=c1c(O)c(-c2ccc(O)cc2)oc2cc(O)cc(O)c12 [Kaempferol, 3,5,7,4′quadrahydroxyflavone]
- LDH rel. % con. (A549 cells [5]; 48 hours treatment): 173 % con.
- LDH rel. % con. (HL-60 cells [1]; HL-60, 50 μM): 128 % con.
- Intracellular GSH levels, % compared to control (A549 cells [2]; A549, 25 μM, 4 h): 29.6 ± 0.9%
- Int. GSH % con. (A549 cells [2]; [13]): 7 % con.
- Int. GSH % con. (PC-3 cells [3]; 24 hours treatment): 77 % con.
- LDH rel. % con. (PC-3 cells [6]): 115 % con.
- Int. GSH % con. (HL-60 cells [4]; [14]): 75 % con.

SMILES: COc1cc(/C=C/C(=O)CC(=O)/C=C/c2ccc(O)c(OC)c2)ccc1O [Curcumin, reference compound]
- LDH release, % of control at 75 µM (A549 cells [5]; [10]): 140%
- LDH release, % of control at 25 µM (HL-60 cells [1]; HL-60, 25 μM): 180%
- activity at 50 µM (A549 cells [2]; [16]): 53%
- activity at 25 µM (PC-3 cells [3]; [12]): 170%
- LDH release, % of control at 50 µM (PC-3 cells [6]): 180%
- activity at 25 µM (HL-60 cells [4]; [15]): 221%

SMILES: C=C(C)[C@H]1Cc2c(ccc3c2O[C@@H]2COc4cc(OC)c(OC)cc4[C@@H]2C3=O)O1 [Rotenone, reference compound]
- LDH release, % of control at 75 µM (A549 cells [5]; [10]): 170%
- LDH release, % of control at 25 µM (HL-60 cells [1]; HL-60, 25 μM): 421%
- activity at 50 µM (A549 cells [2]; [16]): 53%
- activity at 25 µM (PC-3 cells [3]; [12]): 74%
- LDH release, % of control at 50 µM (PC-3 cells [6]): 180%
- effect on intracellular GSH (words) (HL-60 cells [4]; HL-60 cells): relatively effective for depleting GSH
- activity at 25 µM (HL-60 cells [4]; [15]): < 5%

SMILES: O=C(/C=C/c1ccc(O)cc1)c1ccc(O)cc1O [2′,4′,4-THC, 2′,4′,4 trihydroxychalcone]
- activity at 25 µM (A549 cells [2]; [8]): 6.8 ± 0.2%
- activity at 25 µM (A549 cells [2]; [9]): < 5%

SMILES: O=C(/C=C/c1ccccc1)c1cc(O)ccc1O [2′,5′-DHC, 2′ 5′ dihydroxychalcone]
- LDH rel. % con. (A549 cells [5]; 48 hours treatment): 273 % con.
- effect on the toxicities of rotenone (50 μM), curcumin (50 μM) and 2-ME (50 μM) (A549 cells [5]; A549 cells, 48 hours, compound 10 μM (FIG. 20D)): potentiated
- LDH rel. % con. (HL-60 cells [1]; HL-60, 50 μM): 310 % con.
- Intracellular GSH levels, % compared to control (A549 cells [2]; A549, 25 μM, 2 h): <5%
- Intracellular GSH levels, % compared to control (A549 cells [2]; A549, 25 μM, 4 h): <5%
- Int. GSH % con. (A549 cells [2]; [13]): <5 % con.
- Int. GSH % con. (PC-3 cells [3]; 24 hours treatment): 67 % con.
- LDH rel. % con. (PC-3 cells [6]): 246 % con.
- Int. GSH % con. (HL-60 cells [4]; [7]): <5 % con.

SMILES: O=c1c(O)c(-c2ccc(O)c(O)c2)oc2cc(O)ccc12 [Fisetin]
- LDH release, % of control at 75 µM (A549 cells [5]; [10]): 267%
- toxicity (HL-60 cells [1]; HL-60 cells): toxic
- LDH release, % of control at 50 µM (HL-60 cells [1]; HL-60, 50 μM): 166%
- activity at 50 µM (A549 cells [2]; [16]): 50%
- activity at 50 µM (PC-3 cells [3]; Homo sapiens, PC-3, 50 μM, 24 hours treatment, read-out: Int. GSH % con.): 100%
- LDH release, % of control at 50 µM (PC-3 cells [6]): 109%
- effect on intracellular GSH (words) (HL-60 cells [4]; HL-60 cells): relatively effective for depleting GSH
- activity at 50 µM (HL-60 cells [4]; Homo sapiens, HL-60, 50 μM, 24 hours treatment, read-out: Int. GSH % con.): 16%
